Test results: US20090023775A1, “1-[2-(4-BENZYL-4-HYDROXY-PIPERIDIN-1 -YL )-ETHYL]-3-(2-METHYL-QUINOLIN- 4-YL)- UREA AS CRYSTALLINE SULFATE SALT” (Actelion Pharmaceuticals Ltd., priority 2004, published 2009)

Assays:
[1] = Dynamic vapor sorption (DVS), gravimetric measurement under controlled relative humidity; format: physicochemical
Procedure: X-ray diffraction patterns (XRD) were recorded on a Bruker D5000, using a Cu-Kalpha (1.5418 Å) source, a 40 kV -30 mA generator, in a range of 3 et 40° (2theta). DVS is performed as gravimetric measurement (10-30 mg of sample), at a given temperature, under controlled relative humidity. Measurements are performed on a SMS (Surface Measurement Systems) DVS 1000. First, the sample is dried (0% RH) under dry nitrogen at the experiment temperature. Then a cycle of relative humidity (RH) is applied to the sample (generally increase by steps e.g. 20, 40, 60 and 80% RH and decrease to 0% RH by the same steps). The duration of each step of RH is sufficient to reach a weight equilibrium.
Table 2 summarizes the results of two cycles (0 to 85% relative humidity) in a DVS measurement (40° C.) of 1-[2-(4-benzyl-4-hydroxy-piperidin-1-yl)-ethyl]-3-(2-methyl-quinolin-4-yl)-urea sulfate trihydrate described in Example 1.
Table 4 summarizes the results of three cycles (0 to 85% relative humidity) in a DVS measurement (25° C.) of 1-[2-(4-benzyl-4-hydroxy-piperidin-1-yl)-ethyl]-3-(2-methyl-quinolin-4-yl)-urea sulfate trihydrate described in Example 2.

[2] = molecular target: T1, urotensin II receptor (Homo sapiens, UniProt Q9UKP6); details: Clozel et al., J. Pharmcol. Exp. Ther. 2004, 311, 204-212; cited from earlier work
T1 sequence (Q9UKP6 1-389): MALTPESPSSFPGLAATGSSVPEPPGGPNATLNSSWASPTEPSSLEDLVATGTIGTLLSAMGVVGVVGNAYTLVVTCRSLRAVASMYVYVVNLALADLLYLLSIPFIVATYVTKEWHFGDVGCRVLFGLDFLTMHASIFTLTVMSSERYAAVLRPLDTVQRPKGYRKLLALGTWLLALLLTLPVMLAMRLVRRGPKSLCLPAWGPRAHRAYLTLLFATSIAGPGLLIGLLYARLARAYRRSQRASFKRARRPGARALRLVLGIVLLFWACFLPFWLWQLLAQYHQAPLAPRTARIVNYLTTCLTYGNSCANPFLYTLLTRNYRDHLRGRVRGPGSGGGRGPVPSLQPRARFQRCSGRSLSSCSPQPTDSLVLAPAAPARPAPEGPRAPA

[3] = Behaviour of the free base at higher temperature and higher humidity; format: physicochemical
Description: Therefore, the said compound of formula I as free base is not suitable as a pharmaceutical product since it is not easy to handle in pharmaceutical preparations. In addition, large scale production and storage of the said compound of formula I causes problems due to the properties mentioned above.

[4] = DVS 40° C., Cycle 1, target RH 0.0%
[5] = DVS 40° C., Cycle 1, target RH 20.0%
[6] = DVS 40° C., Cycle 1, target RH 40.0%
[7] = DVS 40° C., Cycle 1, target RH 60.0%
[8] = DVS 40° C., Cycle 1, target RH 85.0%
[9] = DVS 40° C., Cycle 2, target RH 0.0%
[10] = DVS 40° C., Cycle 2, target RH 20.0%
[11] = DVS 40° C., Cycle 2, target RH 40.0%
[12] = DVS 40° C., Cycle 2, target RH 60.0%
[13] = DVS 40° C., Cycle 2, target RH 85.0%
[14] = DVS 25° C., Cycle 1, target RH 0.0%
[15] = DVS 25° C., Cycle 1, target RH 20.0%
[16] = DVS 25° C., Cycle 1, target RH 40.0%
[17] = DVS 25° C., Cycle 1, target RH 60.0%
[18] = DVS 25° C., Cycle 1, target RH 85.0%
[19] = DVS 25° C., Cycle 2, target RH 0.0%
[20] = DVS 25° C., Cycle 2, target RH 20.0%
[21] = DVS 25° C., Cycle 2, target RH 40.0%
[22] = DVS 25° C., Cycle 2, target RH 60.0%
[23] = DVS 25° C., Cycle 2, target RH 85.0%
[24] = DVS 25° C., Cycle 3, target RH 0.0%
[25] = DVS 25° C., Cycle 3, target RH 85.0%
[26] = higher temperature and higher humidity

Structure (SMILES): Cc1cc(NC(=O)NCCN2CCC(O)(Cc3ccccc3)CC2)c2ccccc2n1.O.O.O.O=S(=O)(O)O [Example 1, 1-[2-(4-Benzyl-4-hydroxy-piperidin-1-yl)-ethyl]-3-(2-methyl-quinolin-4-yl)-urea Sulfate Trihydrate]
- Change In Mass (%) Desorption [1, 4]: −0.02%
- Change In Mass (%) Sorption [1, 4]: 0.00%
- Change In Mass (%) Desorption [1, 5]: 9.97%
- Change In Mass (%) Hysteresis [1, 5]: 0.26%
- Change In Mass (%) Sorption [1, 5]: 9.71%
- Change In Mass (%) Desorption [1, 6]: 10.26%
- Change In Mass (%) Hysteresis [1, 6]: 0.03%
- Change In Mass (%) Sorption [1, 6]: 10.23%
- Change In Mass (%) Desorption [1, 7]: 10.40%
- Change In Mass (%) Hysteresis [1, 7]: −0.02%
- Change In Mass (%) Sorption [1, 7]: 10.42%
- Change In Mass (%) Desorption [1, 8]: 10.68%
- Change In Mass (%) Sorption [1, 8]: 10.68%
- Change In Mass (%) Desorption [1, 9]: −0.02%
- Change In Mass (%) Sorption [1, 9]: −0.02%
- Change In Mass (%) Desorption [1, 10]: 9.98%
- Change In Mass (%) Hysteresis [1, 10]: 0.17%
- Change In Mass (%) Sorption [1, 10]: 9.81%
- Change In Mass (%) Desorption [1, 11]: 10.28%
- Change In Mass (%) Hysteresis [1, 11]: 0.02%
- Change In Mass (%) Sorption [1, 11]: 10.26%
- Change In Mass (%) Desorption [1, 12]: 10.42%
- Change In Mass (%) Hysteresis [1, 12]: 0.01%
- Change In Mass (%) Sorption [1, 12]: 10.42%
- Change In Mass (%) Desorption [1, 13]: 10.68%
- Change In Mass (%) Sorption [1, 13]: 10.68%

Structure (SMILES): Cc1cc(NC(=O)NCCN2CCC(O)(Cc3ccccc3)CC2)c2ccccc2n1.O.O.O.O=S(=O)(O)O [Example 2, 1-[2-(4-Benzyl-4-hydroxy-piperidin-1-yl)-ethyl]-3-(2-methyl-quinolin-4-yl)-urea Sulfate Trihydrate]
- Change In Mass (%) Desorption [1, 14]: −0.01%
- Change In Mass (%) Sorption [1, 14]: 0.00%
- Change In Mass (%) Desorption [1, 15]: 11.94%
- Change In Mass (%) Hysteresis [1, 15]: 0.57%
- Change In Mass (%) Sorption [1, 15]: 11.38%
- Change In Mass (%) Desorption [1, 16]: 12.31%
- Change In Mass (%) Hysteresis [1, 16]: 0.32%
- Change In Mass (%) Sorption [1, 16]: 12.00%
- Change In Mass (%) Desorption [1, 17]: 12.49%
- Change In Mass (%) Hysteresis [1, 17]: 0.08%
- Change In Mass (%) Sorption [1, 17]: 12.41%
- Change In Mass (%) Desorption [1, 18]: 12.70%
- Change In Mass (%) Sorption [1, 18]: 12.70%
- Change In Mass (%) Desorption [1, 19]: 0.00%
- Change In Mass (%) Sorption [1, 19]: −0.01%
- Change In Mass (%) Desorption [1, 20]: 11.95%
- Change In Mass (%) Hysteresis [1, 20]: 0.43%
- Change In Mass (%) Sorption [1, 20]: 11.52%
- Change In Mass (%) Desorption [1, 21]: 12.32%
- Change In Mass (%) Hysteresis [1, 21]: 0.25%
- Change In Mass (%) Sorption [1, 21]: 12.06%
- Change In Mass (%) Desorption [1, 22]: 12.49%
- Change In Mass (%) Hysteresis [1, 22]: 0.07%
- Change In Mass (%) Sorption [1, 22]: 12.41%
- Change In Mass (%) Desorption [1, 23]: 12.70%
- Change In Mass (%) Sorption [1, 23]: 12.70%
- Change In Mass (%) Desorption [1, 24]: 0.08%
- Change In Mass (%) Sorption [1, 24]: 0.00%
- Change In Mass (%) Sorption ([1]; DVS 25° C., Cycle 3, target RH 20.0%): 11.55%
- Change In Mass (%) Sorption ([1]; DVS 25° C., Cycle 3, target RH 40.0%): 12.07%
- Change In Mass (%) Sorption ([1]; DVS 25° C., Cycle 3, target RH 60.0%): 12.40%
- Change In Mass (%) Desorption [1, 25]: 12.69%
- Change In Mass (%) Sorption [1, 25]: 12.69%

Structure (SMILES): Cc1cc(NC(=O)NCCN2CCC(O)(Cc3ccccc3)CC2)c2ccccc2n1 [formula I, 1-[2-(4-Benzyl-4-hydroxy-piperidin-1-yl)-ethyl]-3-(2-methyl-quinolin-4-yl)-urea]
- urotensin II receptor antagonist activity [2]: potent urotensin II receptor antagonist
- hygroscopicity [3]: hygroscopic
- agglomeration [3, 26]: agglomerates to a substance cake
- colour stability [3, 26]: its colour changes at higher temperature and higher humidity
